Test results published in ChEMBL document CHEMBL1201862, “PubChem BioAssay data set” (2004).
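Test compounds were applied to cells in 96-well plates for 48 hours at 5 doses. The concentration for 50% growth inhibition is given as GI50.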 Activity calls are given as the source filed them. Cut-off read from the data, not from the text of the source: active = GI50 up to about 1.1 µM and inactive = higher.

Tests used:
Experiment in all cases: DTP human tumour cell line panel, 48 h
[1] = tested on: 786-0
[2] = tested on: A498
[3] = tested on: A549
[4] = tested on: ACHN
[5] = tested on: BT-549
[6] = tested on: CAKI-1
[7] = tested on: COLO 205
[8] = tested on: DU-145
[9] = tested on: EKVX
[10] = tested on: HCT-116
[11] = tested on: HCT-15
[12] = tested on: HL-60
[13] = tested on: HOP-62
[14] = tested on: HOP-92
[15] = tested on: HT-29
[16] = tested on: Hs-578T
[17] = tested on: IGROV-1
[18] = tested on: K562
[19] = tested on: KM12
[20] = tested on: LOX IMVI
[21] = tested on: M14
[22] = tested on: MCF7
[23] = tested on: MDA-MB-231
[24] = tested on: MDA-MB-435
[25] = tested on: MDA-N
[26] = tested on: MOLT-4
[27] = tested on: Malme-3M
[28] = tested on: NCI-H226
[29] = tested on: NCI-H23
[30] = tested on: NCI-H460
[31] = tested on: NCI-H522
[32] = tested on: NCI/ADR-RES
[33] = tested on: OVCAR-3
[34] = tested on: OVCAR-4
[35] = tested on: OVCAR-5
[36] = tested on: OVCAR-8
[37] = tested on: PC-3
[38] = tested on: RPMI-8226
[39] = tested on: RXF 393
[40] = tested on: SF-268
[41] = tested on: SF-295
[42] = tested on: SF-539
[43] = tested on: SK-MEL-28
[44] = tested on: SK-MEL-2
[45] = tested on: SK-MEL-5
[46] = tested on: SK-OV-3
[47] = tested on: SN12C
[48] = tested on: SNB-19
[49] = tested on: SNB-75
[50] = tested on: SR
[51] = tested on: SW-620
[52] = tested on: T47D
[53] = tested on: TK-10
[54] = tested on: U-251
[55] = tested on: UACC-257
[56] = tested on: UACC-62
[57] = tested on: UO-31
[58] = tested on: CCRF-CEM
[59] = tested on: HCC 2998

## C=CCSc1nc2c(N)ncnc2n1C1OC(CO)C(O)C1O (stereo not drawn)
[1]
  GI50: > 100 µM (inactive)
[2]
  GI50: > 100 µM (inactive)
[3]
  GI50: > 100 µM (inactive)
[4]
  GI50: > 100 µM (inactive)
[5]
  GI50: > 100 µM (inactive)
[6]
  GI50: > 100 µM (inactive)
[7]
  GI50: > 100 µM (inactive)
[8]
  GI50: > 100 µM (inactive)
[9]
  GI50: > 100 µM (inactive)
[10]
  GI50: > 100 µM (inactive)
[11]
  GI50: > 100 µM
[12]
  GI50: > 100 µM (inactive)
[13]
  GI50: > 100 µM (inactive)
[14]
  GI50: > 100 µM (inactive)
[15]
  GI50: > 100 µM (inactive)
[16]
  GI50: > 100 µM (inactive)
[17]
  GI50: > 100 µM (inactive)
[18]
  GI50: > 100 µM (inactive)
[19]
  GI50: 80.2 µM (inactive)
[20]
  GI50: > 100 µM (inactive)
[21]
  GI50: > 100 µM (inactive)
[22]
  GI50: > 100 µM (inactive)
[23]
  GI50: > 100 µM (inactive)
[24]
  GI50: > 100 µM (inactive)
[25]
  GI50: > 100 µM (inactive)
[26]
  GI50: > 100 µM (inactive)
[27]
  GI50: > 100 µM (inactive)
[28]
  GI50: > 100 µM (inactive)
[29]
  GI50: > 100 µM (inactive)
[30]
  GI50: > 100 µM (inactive)
[31]
  GI50: > 100 µM (inactive)
[32]
  GI50: > 100 µM (inactive)
[33]
  GI50: > 100 µM (inactive)
[34]
  GI50: > 100 µM (inactive)
[35]
  GI50: > 100 µM (inactive)
[36]
  GI50: > 100 µM (inactive)
[37]
  GI50: > 100 µM (inactive)
[38]
  GI50: > 100 µM (inactive)
[39]
  GI50: > 100 µM (inactive)
[40]
  GI50: > 100 µM (inactive)
[41]
  GI50: > 100 µM (inactive)
[42]
  GI50: > 100 µM (inactive)
[43]
  GI50: > 100 µM (inactive)
[44]
  GI50: > 100 µM (inactive)
[45]
  GI50: > 100 µM (inactive)
[46]
  GI50: > 100 µM (inactive)
[47]
  GI50: > 100 µM (inactive)
[48]
  GI50: > 100 µM (inactive)
[49]
  GI50: > 100 µM (inactive)
[50]
  GI50: > 100 µM (inactive)
[51]
  GI50: > 100 µM (inactive)
[52]
  GI50: > 100 µM (inactive)
[53]
  GI50: > 100 µM (inactive)
[54]
  GI50: > 100 µM (inactive)
[55]
  GI50: > 100 µM (inactive)
[56]
  GI50: > 100 µM (inactive)
[57]
  GI50: > 100 µM (inactive)

## CCCCCCCCCCCCOc1ccc(/C=C/C2=[N+](CCCl)CCO2)cc1
[1]
  GI50: 19.2 µM (inactive)
[2]
  GI50: > 100 µM (inactive)
[3]
  GI50: 65.2 µM (inactive)
[4]
  GI50: 50.2 µM (inactive)
[5]
  GI50: > 100 µM (inactive)
[6]
  GI50: > 100 µM (inactive)
[58]
  GI50: 22.8 µM (inactive)
[7]
  GI50: > 100 µM (inactive)
[8]
  GI50: > 100 µM (inactive)
[9]
  GI50: 97.1 µM (inactive)
[59]
  GI50: 39.1 µM (inactive)
[10]
  GI50: 15.8 µM (inactive)
[11]
  GI50: 31.7 µM
[12]
  GI50: 12.8 µM (inactive)
[13]
  GI50: > 100 µM (inactive)
[14]
  GI50: 25.1 µM (inactive)
[15]
  GI50: > 100 µM (inactive)
[16]
  GI50: 56.6 µM (inactive)
[17]
  GI50: 25.4 µM (inactive)
[18]
  GI50: 21.3 µM (inactive)
[19]
  GI50: 38 µM (inactive)
[20]
  GI50: 17.7 µM (inactive)
[21]
  GI50: > 100 µM (inactive)
[22]
  GI50: 54.2 µM (inactive)
[23]
  GI50: 25.1 µM (inactive)
[24]
  GI50: 94.2 µM (inactive)
[25]
  GI50: 75.9 µM (inactive)
[26]
  GI50: 25 µM (inactive)
[27]
  GI50: > 100 µM (inactive)
[28]
  GI50: > 100 µM (inactive)
[30]
  GI50: 43.4 µM (inactive)
[31]
  GI50: 17 µM (inactive)
[32]
  GI50: 46.1 µM (inactive)
[33]
  GI50: 19.4 µM (inactive)
[34]
  GI50: 41.7 µM (inactive)
[35]
  GI50: > 100 µM (inactive)
[36]
  GI50: 56.4 µM (inactive)
[37]
  GI50: 58.1 µM (inactive)
[38]
  GI50: 20.1 µM (inactive)
[41]
  GI50: 45.8 µM (inactive)
[42]
  GI50: > 100 µM (inactive)
[43]
  GI50: > 100 µM (inactive)
[44]
  GI50: > 100 µM (inactive)
[45]
  GI50: 67 µM (inactive)
[46]
  GI50: > 100 µM (inactive)
[47]
  GI50: 77.4 µM (inactive)
[48]
  GI50: > 100 µM (inactive)
[49]
  GI50: 45.5 µM (inactive)
[50]
  GI50: 19.6 µM (inactive)
[51]
  GI50: > 100 µM (inactive)
[52]
  GI50: 76.4 µM (inactive)
[53]
  GI50: 47.6 µM (inactive)
[54]
  GI50: 24.3 µM (inactive)
[55]
  GI50: 63.2 µM (inactive)
[56]
  GI50: 93.3 µM (inactive)
[57]
  GI50: 47.3 µM (inactive)
